According to ChEMBL document CHEMBL5608166, “Current therapy in amyotrophic lateral sclerosis (ALS): A review on past and future therapeutic strategies” (Eur J Med Chem, 2024):

Biological target: Tau-tubulin kinase 2 (Homo sapiens, UniProt Q6IQ55)
Experiment: Inhibition of TTBK2 (unknown origin)

Tau-tubulin kinase 2, sequence (Q6IQ55 whole entry): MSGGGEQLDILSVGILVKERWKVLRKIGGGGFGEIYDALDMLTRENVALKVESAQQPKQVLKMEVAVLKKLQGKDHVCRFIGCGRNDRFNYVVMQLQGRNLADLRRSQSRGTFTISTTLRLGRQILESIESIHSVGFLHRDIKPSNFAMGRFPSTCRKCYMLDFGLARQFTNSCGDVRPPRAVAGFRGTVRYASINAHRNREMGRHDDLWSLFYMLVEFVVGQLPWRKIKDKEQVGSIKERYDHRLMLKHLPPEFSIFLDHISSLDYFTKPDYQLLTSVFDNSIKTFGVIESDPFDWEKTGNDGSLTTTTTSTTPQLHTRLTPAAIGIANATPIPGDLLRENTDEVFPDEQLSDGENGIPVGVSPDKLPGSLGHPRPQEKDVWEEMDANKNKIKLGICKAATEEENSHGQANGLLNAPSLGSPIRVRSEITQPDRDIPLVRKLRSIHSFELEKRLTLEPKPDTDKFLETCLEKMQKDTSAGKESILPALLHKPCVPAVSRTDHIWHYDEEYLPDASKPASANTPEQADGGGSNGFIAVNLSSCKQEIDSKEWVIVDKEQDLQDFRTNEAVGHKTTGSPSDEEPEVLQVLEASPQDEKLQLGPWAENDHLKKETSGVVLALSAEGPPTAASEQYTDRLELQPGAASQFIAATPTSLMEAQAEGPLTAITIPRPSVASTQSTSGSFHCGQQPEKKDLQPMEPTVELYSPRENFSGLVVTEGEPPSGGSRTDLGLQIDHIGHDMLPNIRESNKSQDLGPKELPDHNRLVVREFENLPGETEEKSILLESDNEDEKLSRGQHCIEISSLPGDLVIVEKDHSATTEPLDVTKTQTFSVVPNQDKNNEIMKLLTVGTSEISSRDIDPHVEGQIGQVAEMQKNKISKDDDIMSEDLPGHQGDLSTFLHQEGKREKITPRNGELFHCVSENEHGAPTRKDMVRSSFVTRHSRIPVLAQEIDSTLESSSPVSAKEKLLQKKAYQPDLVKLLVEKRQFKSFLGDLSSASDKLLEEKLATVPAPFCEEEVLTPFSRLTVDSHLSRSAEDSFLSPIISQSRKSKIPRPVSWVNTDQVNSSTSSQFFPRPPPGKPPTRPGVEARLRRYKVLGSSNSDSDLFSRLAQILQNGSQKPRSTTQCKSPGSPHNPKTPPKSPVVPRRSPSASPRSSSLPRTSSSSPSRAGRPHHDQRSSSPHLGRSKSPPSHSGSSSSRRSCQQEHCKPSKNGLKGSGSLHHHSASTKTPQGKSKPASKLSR

## CC1(N)CCN(Cc2ccn3ncnc(Nc4cc(O)cc(Br)c4)c23)CC1
  IC50: 1.6 nM
